This passage reports mutagenic call results from PubChem BioAssay AID1259407 (Chemical Carcinogenesis Research Information System (CCRIS), 2018).

Molecules are shown by their SMILES. Active and inactive are the calls of the source. The rule behind the calls is not given here.

This series deals with CCRIS mutagenicity, Ames/micronucleus/aberration tests. Put plainly: CCRIS mutagenicity studies.
The mark [1] stands for this setting: Test System: AMES SALMONELLA TYPHIMURIUM, Strain/Indicator: TA98, Metabolic Activation: NONE, Method: PREINCUBATION
[2] abbreviates: Test System: AMES SALMONELLA TYPHIMURIUM, Strain/Indicator: TA98, Metabolic Activation: NONE, Method: STANDARD PLATE.
[3] abbreviates: Test System: AMES SALMONELLA TYPHIMURIUM, Strain/Indicator: TA98, Metabolic Activation: RAT, LIVER, S-9, AROCLOR 1254, Method: STANDARD PLATE.
Setting [4] is: Test System: AMES SALMONELLA TYPHIMURIUM, Strain/Indicator: TA100, Metabolic Activation: NONE, Method: STANDARD PLATE.
The mark [5] stands for this setting: Test System: AMES SALMONELLA TYPHIMURIUM, Strain/Indicator: TA1535, Metabolic Activation: NONE, Method: STANDARD PLATE.
[6] abbreviates: Test System: AMES SALMONELLA TYPHIMURIUM, Strain/Indicator: TA1537, Metabolic Activation: NONE, Method: STANDARD PLATE.
The mark [7] stands for this setting: Test System: AMES SALMONELLA TYPHIMURIUM, Strain/Indicator: TA1538, Metabolic Activation: NONE, Method: STANDARD PLATE.

With `C=C1C[C@@]23CCC4[C@](C)(C(=O)O)CCC[C@@]4(C)[C@@H]2CC[C@]1(OC(C)=O)C3` (some centres not stated), the mutagenic call (Test System: AMES SALMONELLA TYPHIMURIUM, Strain/Indicator: TM677, Metabolic Activation: RAT, LIVER, S-9, AROCLOR 1254, Method: PREINCUBATION) is “inactive; negative”.

Regarding `O=[N+]([O-])c1ccc2cc3ccccc3cc2c1`, the mutagenic call reads like this: under setting [1], “active; positive”; under setting [2], “active; positive”; (Test System: AMES SALMONELLA TYPHIMURIUM, Strain/Indicator: TA98, Metabolic Activation: RAT, LIVER, S-9, AROCLOR 1254 (10%), Method: PREINCUBATION) “active; positive”; under setting [3], “active; positive”; (Test System: AMES SALMONELLA TYPHIMURIUM, Strain/Indicator: TA100, Metabolic Activation: NONE, Method: PREINCUBATION) “active; positive”; (Test System: AMES SALMONELLA TYPHIMURIUM, Strain/Indicator: TA100, Metabolic Activation: RAT, LIVER, S-9, AROCLOR 1254 (10%), Method: PREINCUBATION) “active; positive”.

Consider `CCCC(=O)N=c1sn(C(=O)CCC)c2ccc([N+](=O)[O-])cc12`, for which, for the setting “Test System: AMES SALMONELLA TYPHIMURIUM, Strain/Indicator: TA100, Metabolic Activation: S-9, Method: STANDARD PLATE”, the mutagenic call was “active; positive”.

In the case of `CCCC(=O)OC1CCCCC1`, the mutagenic call (Test System: AMES SALMONELLA TYPHIMURIUM, Strain/Indicator: TA97, Metabolic Activation: NONE, Method: PREINCUBATION) is “inactive; negative”; the mutagenic call (Test System: AMES SALMONELLA TYPHIMURIUM, Strain/Indicator: TA97, Metabolic Activation: RAT, LIVER, S-9, AROCLOR 1254, Method: PREINCUBATION) is “inactive; negative”; the mutagenic call (Test System: AMES SALMONELLA TYPHIMURIUM, Strain/Indicator: TA102, Metabolic Activation: NONE, Method: PREINCUBATION) was “inactive; negative”; the mutagenic call (Test System: AMES SALMONELLA TYPHIMURIUM, Strain/Indicator: TA102, Metabolic Activation: RAT, LIVER, S-9, AROCLOR 1254, Method: PREINCUBATION) is “inactive; negative”.

As to `C[C@H](CCC(=O)O)[C@H]1CC[C@H]2[C@@H]3CC[C@@H]4CC(=O)CC[C@]4(C)[C@H]3C[C@H](O)[C@]12C`, the mutagenic call by setting is: (Test System: AMES SALMONELLA TYPHIMURIUM, Strain/Indicator: TA98, Metabolic Activation: NONE, Method: FLUCTUATION TEST) “inactive; negative”; under setting [1], “inactive; negative”; (Test System: AMES SALMONELLA TYPHIMURIUM, Strain/Indicator: TA98, Metabolic Activation: RAT, LIVER, S-9, PCB, Method: PREINCUBATION) “inactive; negative”; (Test System: AMES SALMONELLA TYPHIMURIUM, Strain/Indicator: TA100, Metabolic Activation: NONE, Method: FLUCTUATION TEST) “inactive; negative”.

On to `Cn1c(N)nc2nc3cccnc3cc21`, for which the mutagenic call reads like this: (Test System: AMES SALMONELLA TYPHIMURIUM, Strain/Indicator: TA98, Metabolic Activation: RAT, LIVER, S-9, AROCLOR 1254A, Method: STANDARD PLATE) “inactive; negative”; (Test System: AMES SALMONELLA TYPHIMURIUM, Strain/Indicator: YG1024, Metabolic Activation: RAT, LIVER, S-9, AROCLOR 1254A, Method: STANDARD PLATE) “active; positive”.

`[N-]=[N+]=NCC(O)Cn1cnc2c(N)ncnc21` (configuration not stated): the mutagenic call under setting [4] is “active; positive”.

`CCN(CCCl)CCCNc1c2ccccc2nc2ccccc12`: the mutagenic call is “active; positive” under setting [2]; “active; positive” under setting [4]; “inactive; negative” under setting [5]; “active; positive” (Test System: AMES SALMONELLA TYPHIMURIUM, Strain/Indicator: TA1536, Metabolic Activation: NONE, Method: STANDARD PLATE); “active; positive” under setting [6]; “active; positive” under setting [7].

With `Nc1ccc(S(N)(=O)=O)cc1`, the mutagenic call is “inactive; negative” (End Point: IN VITRO CHROMOSOMAL ABERRATIONS, Test System: CHINESE HAMSTER OVARY CELLS, Metabolic Activation: NONE); “inactive; negative” (End Point: IN VITRO CHROMOSOMAL ABERRATIONS, Test System: CHINESE HAMSTER OVARY CELLS, Metabolic Activation: RAT, LIVER, S-9, AROCLOR 1254); “inactive; negative” (Test System: AMES SALMONELLA TYPHIMURIUM, Strain/Indicator: TA98, Metabolic Activation: HAMSTER, LIVER, S-9, AROCLOR 1254, Method: STANDARD PLATE); “inactive; negative” under setting [2]; “inactive; negative” under setting [3]; “inactive; negative” (Test System: AMES SALMONELLA TYPHIMURIUM, Strain/Indicator: TA100, Metabolic Activation: HAMSTER, LIVER, S-9, AROCLOR 1254, Method: STANDARD PLATE). The mutagenic call is, setting by setting: under setting [4], “inactive; negative”; (Test System: AMES SALMONELLA TYPHIMURIUM, Strain/Indicator: TA100, Metabolic Activation: RAT, LIVER, S-9, AROCLOR 1254, Method: STANDARD PLATE) “inactive; negative”; (Test System: AMES SALMONELLA TYPHIMURIUM, Strain/Indicator: TA1535, Metabolic Activation: HAMSTER, LIVER, S-9, AROCLOR 1254, Method: STANDARD PLATE) “inactive; negative”; under setting [5], “inactive; negative”; (Test System: AMES SALMONELLA TYPHIMURIUM, Strain/Indicator: TA1535, Metabolic Activation: RAT, LIVER, S-9, AROCLOR 1254, Method: STANDARD PLATE) “inactive; negative”; (Test System: AMES SALMONELLA TYPHIMURIUM, Strain/Indicator: TA1537, Metabolic Activation: HAMSTER, LIVER, S-9, AROCLOR 1254, Method: STANDARD PLATE) “inactive; negative”. Moreover, the mutagenic call reads like this: under setting [6], “inactive; negative”; (Test System: AMES SALMONELLA TYPHIMURIUM, Strain/Indicator: TA1537, Metabolic Activation: RAT, LIVER, S-9, AROCLOR 1254, Method: STANDARD PLATE) “inactive; negative”; (Test System: AMES SALMONELLA TYPHIMURIUM, Strain/Indicator: TA1538, Metabolic Activation: HAMSTER, LIVER, S-9, AROCLOR 1254, Method: STANDARD PLATE) “inactive; negative”; under setting [7], “inactive; negative”; (Test System: AMES SALMONELLA TYPHIMURIUM, Strain/Indicator: TA1538, Metabolic Activation: RAT, LIVER, S-9, AROCLOR 1254, Method: STANDARD PLATE) “inactive; negative”; (Test System: MOUSE LYMPHOMA, Strain/Indicator: L5178Y (TK+/TK-), Metabolic Activation: NONE, Method: SUSPENSION/PLATE) “inactive; negative”. For the same compound, the mutagenic call is, setting by setting: (Test System: MOUSE LYMPHOMA, Strain/Indicator: L5178Y (TK+/TK-), Metabolic Activation: RAT, LIVER, S-9, AROCLOR 1254, Method: SUSPENSION/PLATE) “inactive; negative”; (Test System: Mouse lymphoma, Strain/Indicator: L5178Y (tk+/tk-), Metabolic Activation: None, Method: Suspension/plate) “inactive; negative”; (Test System: Mouse lymphoma, Strain/Indicator: L5178Y (tk+/tk-), Metabolic Activation: Rat, Liver, S-9, Aroclor 1254, Method: Suspension/plate) “inactive; negative”.

For `COc1ccccc1NCSC`, the mutagenic call reads like this: (Test System: AMES SALMONELLA TYPHIMURIUM, Strain/Indicator: TA98, Metabolic Activation: NONE, Method: SPOT TEST) “inactive; negative”; (Test System: AMES SALMONELLA TYPHIMURIUM, Strain/Indicator: TA98, Metabolic Activation: RAT, LIVER, S-9, AROCLOR 1254, Method: SPOT TEST) “active; positive”; (Test System: AMES SALMONELLA TYPHIMURIUM, Strain/Indicator: TA100, Metabolic Activation: NONE, Method: SPOT TEST) “active; positive”; (Test System: AMES SALMONELLA TYPHIMURIUM, Strain/Indicator: TA100, Metabolic Activation: RAT, LIVER, S-9, AROCLOR 1254, Method: SPOT TEST) “active; positive”; (Test System: AMES SALMONELLA TYPHIMURIUM, Strain/Indicator: TA102, Metabolic Activation: NONE, Method: SPOT TEST) “inactive; negative”; (Test System: AMES SALMONELLA TYPHIMURIUM, Strain/Indicator: TA102, Metabolic Activation: RAT, LIVER, S-9, AROCLOR 1254, Method: SPOT TEST) “active; positive”.
